From patent US10894786B2, “Substituted pyrazole derivatives as selective CDK12/13 inhibitors” (Aurigene Discovery Technologies Limited, priority 2018, dated 2021) come the findings set out here.

Where two headings read alike, the source gives them in different places.

Test [1] has as its target CDK13 (Homo sapiens (Human), UniProt Q14004). The test is described as follows: Biochemical assay for CDK13, LanthaScreen Eu Kinase Binding Assay. Particulars: for IC50: kinase tracer 236 100 nM; for Ratio CDK7/CDK13: ratio of IC50. An excerpt:
Binding of an inhibitor to the kinase competes for binding with the tracer, resulting in a loss of FRET signal.
In general terms: TR-FRET usually uses a lanthanide donor and a delayed reading to cut background.

Test [2] addresses T1, CDK12 (Homo sapiens (Human), UniProt Q9NYV4). Kind of test: Biochemical assay for CDK12 (Kd determination), kinase-tagged phage/qPCR competition binding. As for the experimental part: Kinase-tagged T7 phage strains were grown in parallel in 24-well blocks in an E. coli host derived from the BL21 strain. E. coli were grown to log-phase and infected with T7 phage from a frozen stock (multiplicity of infection=0.4) and incubated with shaking at 32° C. until lysis (90-150 minutes). The lysates were centrifuged (6,000×g) and filtered (0.2 μm) to remove cell debris. The remaining kinases were produced in HEK-293 cells and subsequently tagged with DNA for qPCR detection. […] The liganded beads were blocked with excess biotin and washed with blocking buffer (SeaBlock (Pierce), 1% BSA, 0.05% Tween 20, 1 mM DTT) to remove unbound ligand and to reduce non-specific phage binding. […] Test compounds were prepared as 40× stocks in 100% DMSO and directly diluted into the assay. All reactions were performed in polypropylene 384-well plates in a final volume of 0.02 ml. […] The kinase concentration in the eluates was measured by qPCR.
For orientation: In qPCR the cycle at which signal appears reflects the starting amount.
Target sequence in this assay (Q9NYV4 whole entry, species assumed): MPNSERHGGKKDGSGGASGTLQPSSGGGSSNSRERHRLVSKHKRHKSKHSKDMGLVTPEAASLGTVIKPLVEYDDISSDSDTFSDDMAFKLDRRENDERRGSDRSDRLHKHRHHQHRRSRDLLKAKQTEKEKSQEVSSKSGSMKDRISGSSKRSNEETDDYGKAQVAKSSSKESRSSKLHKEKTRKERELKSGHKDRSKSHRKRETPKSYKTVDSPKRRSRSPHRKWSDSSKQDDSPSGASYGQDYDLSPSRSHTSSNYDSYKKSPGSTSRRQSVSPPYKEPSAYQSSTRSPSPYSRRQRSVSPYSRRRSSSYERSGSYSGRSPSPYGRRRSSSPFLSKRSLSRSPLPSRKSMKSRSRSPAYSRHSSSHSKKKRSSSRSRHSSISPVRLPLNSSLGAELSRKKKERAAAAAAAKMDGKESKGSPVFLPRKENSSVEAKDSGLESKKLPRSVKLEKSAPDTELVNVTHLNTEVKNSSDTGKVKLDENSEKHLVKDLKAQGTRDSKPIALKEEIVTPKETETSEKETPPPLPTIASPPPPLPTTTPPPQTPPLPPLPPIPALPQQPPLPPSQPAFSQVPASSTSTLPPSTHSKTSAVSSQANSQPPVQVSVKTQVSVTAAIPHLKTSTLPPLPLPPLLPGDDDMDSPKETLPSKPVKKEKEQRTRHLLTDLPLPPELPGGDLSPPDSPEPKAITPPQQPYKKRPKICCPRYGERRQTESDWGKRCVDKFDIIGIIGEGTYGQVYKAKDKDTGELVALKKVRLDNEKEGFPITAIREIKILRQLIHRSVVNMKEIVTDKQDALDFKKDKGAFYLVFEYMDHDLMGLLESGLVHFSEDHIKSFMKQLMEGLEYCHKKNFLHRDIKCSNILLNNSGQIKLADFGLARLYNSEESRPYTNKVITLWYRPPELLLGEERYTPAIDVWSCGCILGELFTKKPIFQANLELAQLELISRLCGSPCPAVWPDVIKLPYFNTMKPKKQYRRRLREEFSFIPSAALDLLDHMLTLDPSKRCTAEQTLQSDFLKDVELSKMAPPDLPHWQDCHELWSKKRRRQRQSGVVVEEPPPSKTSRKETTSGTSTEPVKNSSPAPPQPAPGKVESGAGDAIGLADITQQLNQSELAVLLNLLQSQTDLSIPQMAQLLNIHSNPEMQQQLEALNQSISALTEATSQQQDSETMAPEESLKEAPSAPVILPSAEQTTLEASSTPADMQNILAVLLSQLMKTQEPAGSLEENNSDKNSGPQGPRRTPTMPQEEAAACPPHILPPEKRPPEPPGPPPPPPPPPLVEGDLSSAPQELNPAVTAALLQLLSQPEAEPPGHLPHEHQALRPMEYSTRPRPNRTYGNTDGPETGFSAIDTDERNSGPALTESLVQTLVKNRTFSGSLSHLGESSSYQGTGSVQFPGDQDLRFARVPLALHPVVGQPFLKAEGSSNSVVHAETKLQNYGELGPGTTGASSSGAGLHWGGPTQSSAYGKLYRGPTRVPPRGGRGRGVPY

Test [3] has as its target T1, CDK12. The test is described as follows: Biochemical assay for CDK12 (IC50 determination), LANCE TR-FRET. To be noted: for IC50: ATP 100 μM, 60 min pre-incubation. As for the experimental part:
The inhibitory activity of the test compounds was assessed by the LANCE TR-FRET assay, which detects the ATP-dependent phosphorylation of an ULight-4E-BP1 (Thr37/Thr46) substrate peptide (100 nM) by CDK12 (30 nM). Briefly, the enzyme reaction was run in reaction buffer (25 mM HEPES (pH 7.5), 10 mM MgCl2, 0.01% BSA, 0.01% Triton x, 1 mM DTT). The assay was performed in 384-well plate format. The end concentration of the ATP substrate was 100 μM, and that of the ULight-4E-BP1 (Thr37/Thr46) substrate peptide was 100 nM, and of CDK12 was 30 nM. Pre-incubation of the compound and enzyme was performed for 60 min at room temperature. After 60 min incubation at room temperature, the reaction was terminated by the addition of 40 mM EDTA and 0.5 nM Eu-labeled anti-phospho-eIF4E-binding protein (Thr37/46) antibody in LANCE detection buffer. […] The readout was calculated as (acceptor counts/donor counts)×1000. The IC50 values were derived by fitting a sigmoidal dose-response curve to a plot of assay readout over inhibitor concentration.
Target sequence in this assay (Q9NYV4 whole entry, looked up, species assumed): as the sequence (Q9NYV4 whole entry, species assumed) above
Target sequence in this assay (O75909 whole entry partner, looked up, species assumed): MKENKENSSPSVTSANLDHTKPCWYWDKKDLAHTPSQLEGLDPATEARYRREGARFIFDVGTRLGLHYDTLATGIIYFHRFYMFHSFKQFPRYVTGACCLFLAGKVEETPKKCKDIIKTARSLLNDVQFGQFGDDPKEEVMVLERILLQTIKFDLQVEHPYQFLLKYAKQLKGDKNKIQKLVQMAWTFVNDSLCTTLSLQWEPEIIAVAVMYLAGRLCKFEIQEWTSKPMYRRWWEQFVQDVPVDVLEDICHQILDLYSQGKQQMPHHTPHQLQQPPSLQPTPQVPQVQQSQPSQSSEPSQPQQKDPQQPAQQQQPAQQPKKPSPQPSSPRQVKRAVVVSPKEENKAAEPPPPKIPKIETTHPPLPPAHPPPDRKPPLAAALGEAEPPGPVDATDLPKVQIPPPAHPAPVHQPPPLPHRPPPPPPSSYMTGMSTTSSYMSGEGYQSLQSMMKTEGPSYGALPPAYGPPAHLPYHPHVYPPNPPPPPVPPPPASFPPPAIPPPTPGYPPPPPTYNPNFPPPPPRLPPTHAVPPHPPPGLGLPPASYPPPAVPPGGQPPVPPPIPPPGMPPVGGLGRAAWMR

Test [4] deals with CDK7 (Homo sapiens (Human), UniProt P50613). Kind of test: Biochemical assay for CDK7, LANCE TR-FRET. Particulars: ATP 1 mM/100 μM, 60 min pre-incubation; read-out: CDK 7 IC50. As for the experimental part: The inhibitory activity of the test compounds was assessed by the LANCE TR-FRET assay, which detects the ATP-dependent phosphorylation of an ULight-myelin basic protein (MBP) substrate peptide (100 nM) by CDK7 (10 nM). Briefly, the enzyme reaction was run in reaction buffer (20 mM HEPES (pH 7.5), 10 mM MgCl2, 0.01% Triton x, 100 μM Sodium Orthovanadate, 1 mM DTT). The assay was performed in 384-well plate. The end concentration of the ATP substrate was 1 mM/100 μM, and that of the ULight-MBP substrate peptide was 100 nM, and of CDK7 was 10 nM. Pre-incubation of the compound and enzyme was performed for 60 min at room temperature. After 60 min incubation at room temperature, the reaction was terminated by the addition of 40 mM EDTA and 1 nM Eu-labeled anti-phospho-MBP-binding protein antibody in the buffer. […] The readout was calculated as (acceptor counts/donor counts)×1000. The IC50 values were derived by fitting a sigmoidal dose-response curve to a plot of assay readout over inhibitor concentration.
CDK7, sequence (P50613 whole entry, looked up, species assumed): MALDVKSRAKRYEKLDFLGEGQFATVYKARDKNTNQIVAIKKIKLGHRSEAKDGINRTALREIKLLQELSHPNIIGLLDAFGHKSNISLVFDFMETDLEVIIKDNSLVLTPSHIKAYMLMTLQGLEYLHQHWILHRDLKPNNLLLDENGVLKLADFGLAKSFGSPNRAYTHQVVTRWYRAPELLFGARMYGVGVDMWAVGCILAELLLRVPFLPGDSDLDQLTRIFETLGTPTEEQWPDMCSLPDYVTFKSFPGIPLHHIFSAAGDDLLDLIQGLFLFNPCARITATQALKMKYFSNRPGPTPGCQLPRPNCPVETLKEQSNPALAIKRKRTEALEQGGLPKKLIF
CDK7, sequence (P51946 whole entry partner, looked up, species assumed): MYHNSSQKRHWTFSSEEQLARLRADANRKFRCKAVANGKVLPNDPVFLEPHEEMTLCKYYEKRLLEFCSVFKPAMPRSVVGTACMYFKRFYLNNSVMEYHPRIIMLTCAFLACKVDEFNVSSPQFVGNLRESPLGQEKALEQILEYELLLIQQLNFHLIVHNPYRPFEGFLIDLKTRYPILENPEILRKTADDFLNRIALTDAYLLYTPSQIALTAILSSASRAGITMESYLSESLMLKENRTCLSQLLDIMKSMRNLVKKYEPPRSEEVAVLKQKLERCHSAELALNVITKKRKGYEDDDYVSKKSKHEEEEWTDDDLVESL
CDK7, sequence (P51948 whole entry partner, looked up, species assumed): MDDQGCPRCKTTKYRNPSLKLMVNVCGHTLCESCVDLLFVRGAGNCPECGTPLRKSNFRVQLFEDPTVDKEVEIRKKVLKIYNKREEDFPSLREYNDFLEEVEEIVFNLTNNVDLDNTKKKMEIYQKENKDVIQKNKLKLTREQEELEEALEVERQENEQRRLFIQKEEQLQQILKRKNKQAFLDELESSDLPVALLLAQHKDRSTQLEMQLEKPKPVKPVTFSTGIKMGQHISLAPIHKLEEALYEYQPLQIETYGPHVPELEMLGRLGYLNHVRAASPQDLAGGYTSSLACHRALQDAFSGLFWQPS

CDK13, sequence (Q14004 whole entry, looked up, species assumed): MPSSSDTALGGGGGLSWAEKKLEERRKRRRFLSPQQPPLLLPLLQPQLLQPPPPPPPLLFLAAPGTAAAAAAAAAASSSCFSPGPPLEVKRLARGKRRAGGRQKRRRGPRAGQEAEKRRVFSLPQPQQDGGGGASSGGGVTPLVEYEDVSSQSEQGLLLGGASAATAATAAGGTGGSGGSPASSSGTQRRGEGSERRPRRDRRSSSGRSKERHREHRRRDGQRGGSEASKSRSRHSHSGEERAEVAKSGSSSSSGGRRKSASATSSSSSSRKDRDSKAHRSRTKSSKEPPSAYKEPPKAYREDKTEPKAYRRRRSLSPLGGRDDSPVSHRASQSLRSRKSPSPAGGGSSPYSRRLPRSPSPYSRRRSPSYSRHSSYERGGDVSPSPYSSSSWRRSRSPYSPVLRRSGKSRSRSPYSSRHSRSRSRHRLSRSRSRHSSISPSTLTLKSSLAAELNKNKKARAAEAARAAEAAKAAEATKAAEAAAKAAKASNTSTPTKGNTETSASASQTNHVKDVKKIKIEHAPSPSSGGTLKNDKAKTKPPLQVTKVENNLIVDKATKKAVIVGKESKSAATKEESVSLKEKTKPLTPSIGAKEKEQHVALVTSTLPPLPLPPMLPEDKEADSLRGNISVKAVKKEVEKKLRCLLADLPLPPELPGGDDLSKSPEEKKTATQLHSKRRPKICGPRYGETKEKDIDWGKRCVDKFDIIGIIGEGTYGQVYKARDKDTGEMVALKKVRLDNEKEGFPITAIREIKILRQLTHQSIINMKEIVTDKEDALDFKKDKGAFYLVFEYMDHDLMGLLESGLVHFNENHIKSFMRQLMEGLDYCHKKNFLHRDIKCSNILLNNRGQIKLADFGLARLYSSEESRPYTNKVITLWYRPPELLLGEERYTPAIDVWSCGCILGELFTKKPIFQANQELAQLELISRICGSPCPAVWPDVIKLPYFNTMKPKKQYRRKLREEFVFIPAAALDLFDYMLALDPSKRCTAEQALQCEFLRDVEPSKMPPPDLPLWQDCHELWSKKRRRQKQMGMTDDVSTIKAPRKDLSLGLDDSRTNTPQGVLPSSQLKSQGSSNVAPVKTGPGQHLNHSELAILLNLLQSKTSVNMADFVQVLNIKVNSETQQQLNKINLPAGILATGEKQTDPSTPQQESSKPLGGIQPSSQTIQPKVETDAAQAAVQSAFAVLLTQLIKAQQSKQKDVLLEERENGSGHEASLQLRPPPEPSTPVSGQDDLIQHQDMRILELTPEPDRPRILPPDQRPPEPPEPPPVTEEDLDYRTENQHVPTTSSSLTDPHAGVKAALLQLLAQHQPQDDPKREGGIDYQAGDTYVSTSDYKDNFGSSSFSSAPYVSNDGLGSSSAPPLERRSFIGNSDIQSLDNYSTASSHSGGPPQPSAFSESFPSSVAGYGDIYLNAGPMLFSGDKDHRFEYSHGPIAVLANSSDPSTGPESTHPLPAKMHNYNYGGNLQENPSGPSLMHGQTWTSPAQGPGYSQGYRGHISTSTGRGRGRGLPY
CDK13, sequence (O75909 whole entry partner, looked up, species assumed): as the sequence (O75909 whole entry partner, looked up, species assumed) above

In test [1], `C=CC(=O)N1CCN(c2ccc(C(C)C(=O)Nc3cc(C4CC4)[nH]n3)cc2)CC1` (single isomer, unassigned) [Compound 19, 2-(4-(4-acryloylpiperazin-1-yl)phenyl)-N-(5-cyclopropyl-1H-pyrazol-3-yl)propanamide] registered a half-inhibitory concentration (IC50) of 5810 nM. The Kd in test [2] is over 100 nM.
Take `C=CC(=O)N1CCC=C(c2ccc(C(C)C(=O)Nc3cc(C4CC4)[nH]n3)cn2)C1` (single isomer, unassigned) [Compound 36, 2-(1′-acryloyl-1′,2′,5′,6′-tetrahydro-[2,3′-bipyridin]-5-yl)-N-(5-cyclopropyl-1H-pyrazol-3-yl)propanamide]: the results for the IC50 in test [1] and in test [3] were 153 nM and 686 nM, respectively. The same molecule showed a Kd in test [2] of 25 to 100 nM.
As to `C=CC(=O)NC1CCC(c2ccc(C(C)C(=O)Nc3cc(C4CC4)n[nH]3)cc2)CC1` (stereo not shown) [Compound 10, N-(4-(4-(1-((5-cyclopropyl-1H-pyrazol-3-yl)amino)-1-oxopropan-2-yl)phenyl)cyclohexyl)acrylamide], in test [1], the “Ratio CDK7/CDK13” value stood at 305.11. Besides, the “Ratio CDK7/CDK12” value in test [3] (ratio of IC50) was determined as 7.42.
The corresponding values for `C=CC(=O)NC1CCC(c2ccc(C(C)C(=O)Nc3cc(C4CC4)n[nH]3)cc2)CC1` (stereo not shown) [Compound 11, N-(4-(4-(1-((5-cyclopropyl-1H-pyrazol-3-yl)amino)-1-oxopropan-2-yl)phenyl)cyclohexyl)acrylamide] are 81.02 and 3.57.
Consider `C=CC(=O)N1CCC(c2ccc(C(C)C(=O)Nc3cc(C4CC4)[nH]n3)cn2)CC1` (stereo not shown) [Compound 13, 2-(6-(1-acryloylpiperidin-4-yl)pyridin-3-yl)-N-(5-cyclopropyl-1H-pyrazol-3-yl)propanamide], for which the IC50 in test [1] is 28 nM; in test [4], over 10000 nM; in test [3] it was 58 nM. In test [1], the “Ratio CDK7/CDK13” value was found to be 357.14. Besides, the “Ratio CDK7/CDK12” value in test [3] was found to be 172.41.
As to `C[C@H](C(=O)Nc1cc(C2CC2)[nH]n1)c1ccc(C2=CCN(C(=O)/C=C/CN3CCOCC3)CC2)cc1` [Compound 16, (S,E)-N-(5-cyclopropyl-1H-pyrazol-3-yl)-2-(4-(1-(4-morpholinobut-2-enoyl)-1,2,3,6-tetrahydropyridin-4-yl)phenyl)propanamide], the results for the IC50 in test [1] and in test [3] were 35 nM and 646 nM, respectively.
Regarding `C=CC(=O)N1CCN(c2ccc(C(C)C(=O)Nc3cc(C4CC4)[nH]n3)cc2)CC1` (stereo not shown) [Compound 18, 2-(4-(4-acryloylpiperazin-1-yl)phenyl)-N-(5-cyclopropyl-1H-pyrazol-3-yl)propanamide], in test [1], the “Ratio CDK7/CDK13” value amounted to 198.46. In test [3] (ratio of IC50), the “Ratio CDK7/CDK12” value is 9.75.
Turning to `C=CC(=O)N1CC=C(c2ccc(C(C)C(=O)Nc3cc(C4CC4)[nH]n3)cn2)C1` (stereo not shown) [Compound 38, 2-(6-(1-acryloyl-2,5-dihydro-1H-pyrrol-3-yl)pyridin-3-yl)-N-(5-cyclopropyl-1H-pyrazol-3-yl)propanamide], in test [1], the IC50 came to 100 nM and the “Ratio CDK7/CDK13” value was 10.1. In addition, the concentration for half-maximal inhibition (IC50) in test [4] was 1010 nM. Further, in test [3], the “Ratio CDK7/CDK12” value stood at 29.7 and 34 nM corresponded to half-maximal inhibition (IC50).
Take `C=CC(=O)N1CCC=C(c2ccc(C(CC)C(=O)Nc3cc(C4CC4)[nH]n3)cn2)C1` (stereo not shown) [Compound 39, 2-(1′-acryloyl-1′,2′,5′,6′-tetrahydro-[2,3′-bipyridin]-5-yl)-N-(5-cyclopropyl-1H-pyrazol-3-yl)butanamide]: the IC50 was found to be 93 nM in test [1] and 41 nM in test [3].
As to `C=CC(=O)N1CCCC(c2ccc(C(C)C(=O)Nc3cc(C4CC4)[nH]n3)cn2)C1` (stereo not shown) [Compound 41, 2-(6-(1-acryloylpiperidin-3-yl)pyridin-3-yl)-N-(5-cyclopropyl-1H-pyrazol-3-yl)propanamide], the IC50 in test [1] was 29 nM; in test [4], 3510 nM; in test [3], 354 nM. The “Ratio CDK7/CDK13” value in test [1] came out at 121.03. Moreover, in test [3], the “Ratio CDK7/CDK12” value amounted to 9.91.
Regarding `C=CC(=O)N1CCC=C(c2ccc(C(C)C(=O)Nc3cc(C4CC4)[nH]n3)cc2F)C1` (stereo not shown) [Compound 42, 2-(4-(1-acryloyl-1,2,5,6-tetrahydropyridin-3-yl)-3-fluorophenyl)-N-(5-cyclopropyl-1H-pyrazol-3-yl)propanamide], in test [1], the half-maximal inhibitory concentration (IC50) came to 87 nM and the “Ratio CDK7/CDK13” value turned out to be 5.05. The concentration for half-maximal inhibition (IC50) in test [4] is 440 nM. In addition, in test [3], the “Ratio CDK7/CDK12” value stood at 31.42 and the half-maximal inhibitory concentration (IC50) came to 14 nM.
In the case of `C=CC(=O)N1CCC=C(c2ccc(C(C(=O)Nc3cc(C4CC4)[nH]n3)C(C)C)cn2)C1` (stereo not shown) [Compound 43, 2-(1′-acryloyl-1′,2′,5′,6′-tetrahydro-[2,3′-bipyridin]-5-yl)-N-(5-cyclopropyl-1H-pyrazol-3-yl)-3-methylbutanamide], the half-maximal inhibitory concentration (IC50) in test [1] came to 54 nM; in test [3], 178 nM.
For the molecule `C=CC(=O)N1CC=C(c2ccc(C(C)C(=O)Nc3cc(C4CC4)[nH]n3)cc2F)CC1` (stereo not shown) [Compound 45, 2-(4-(1-acryloyl-1,2,3,6-tetrahydropyridin-4-yl)-3-fluorophenyl)-N-(5-cyclopropyl-1H-pyrazol-3-yl)propanamide], in test [1], the IC50 was found to be 260 nM and the “Ratio CDK7/CDK13” value is on record as 22.15. Also, the half-maximal inhibitory concentration (IC50) in test [4] stood at 5760 nM. In test [3], the “Ratio CDK7/CDK12” value worked out at 12.94 and the half-inhibitory concentration (IC50) is 445 nM.
In the case of `C=CC(=O)N1CC=C(c2ccc(C(C)C(=O)Nc3cc(C4CC4)[nH]n3)cn2)C1` (stereo not shown) [Compound 47, 2-(6-(1-acryloyl-2,5-dihydro-1H-pyrrol-3-yl)pyridin-3-yl)-N-(5-cyclopropyl-1H-pyrazol-3-yl)propanamide], the IC50 was 6 nM in test [1] and 676 nM in test [3].
Turning to `CC#CC(=O)N1CC=C(c2ccc(C(C)C(=O)Nc3cc(C4CC4)[nH]n3)cn2)CC1` (stereo not shown) [Compound 51, 2-(1′-(but-2-ynoyl)-1′,2′,3′,6′-tetrahydro-[2,4′-bipyridin]-5-yl)-N-(5-cyclopropyl-1H-pyrazol-3-yl)propanamide], the IC50 worked out at 25 nM in test [1], 1690 nM in test [4] and 203 nM in test [3]. Further, the “Ratio CDK7/CDK13” value in test [1] was 67.68. The “Ratio CDK7/CDK12” value in test [3] is given as 8.33.
Take `C/C=C/C(=O)N1CCC=C(c2ccc(CC(=O)Nc3cc(C4CC4)[nH]n3)cn2)C1` [Compound 54, (E)-2-(1′-(but-2-enoyl)-1′,2′,5′,6′-tetrahydro-[2,3′-bipyridin]-5-yl)-N-(5-cyclopropyl-1H-pyrazol-3-yl)acetamide]: the results for the IC50 in test [1] and in test [3] were 3 nM and 94 nM, respectively.
As for `CC(C)=CC(=O)N1CCC=C(c2ccc(CC(=O)Nc3cc(C4CC4)[nH]n3)cn2)C1` [Compound 55, N-(5-cyclopropyl-1H-pyrazol-3-yl)-2-(1′-(3-methylbut-2-enoyl)-1′,2′,5′,6′-tetrahydro-[2,3′-bipyridin]-5-yl)acetamide], the 50% inhibitory concentration (IC50) in test [3] was determined as 178 nM.
Turning to `C=C(C)C(=O)N1CCC=C(c2ccc(CC(=O)Nc3cc(C4CC4)[nH]n3)cn2)C1` [Compound 57, N-(5-cyclopropy1-1H-pyrazol-3-yl)-2-(1′-methacryloyl-1′,2′,5′,6′-tetrahydro-[2,3′-bipyridin]-5-yl)acetamide], the IC50 in test [1] turned out to be 10 nM; in test [3], 140 nM.
Turning to `N#CN1CC=C(c2ccc(CC(=O)Nc3cc(C4CC4)[nH]n3)cn2)CC1` [Compound 62, 2-(1′-cyano-1′,2′,3′,6′-tetrahydro-[2,4′-bipyridin]-5-yl)-N-(5-cyclopropyl-1H-pyrazol-3-yl)acetamide], the IC50 in test [3] came to 4 nM.

A word on the IC50: it is the concentration that inhibits the measured activity by half. As usually defined, the Kd is the free concentration of one partner at which half of the binding sites on the other are occupied at equilibrium, for simple one-to-one binding. Higher therefore signals weaker binding.
